# According to patent publication US20200131161A1, “NOVEL POCHONIOLIDE COMPOUND AND USE THEREOF” (THE KITASATO INSTITUTE, priority 2017, published 2020):
# What was measured:
# [1] = test system: HeLaS3 cells, A549 cells, H1299 cells, HT29 cells, Pancl cells, Jurkat cells, HL60 cells, THP-1 cells; test: Cytotoxicity test in vitro, cell viability by WST-8; type: cell-based; settings: at 100 μM, all eight human cell lines, culture for 2 days
# Protocol: Cytotoxicity of the pochoniolides of the present invention on various cells was tested. Human cervical cancer-derived HeLaS3 cells, human lung cancer-derived A549 cells, human lung cancer-derived H1299 cells (not expressing p53), human colon adenocarcinoma HT29 cells, human pancreatic cancer […], human acute T cell leukemia-derived Jurkat cells, human promyelocyte leukemia HL60 cells, and human acute monocytic leukemia THP-1 cells were subjected to evaluation of cytotoxicity by measuring cell viability using WST-8 (Dojindo Laboratories). The cells that had reached 80% confluence were counted using a hemocytometer, and a cell suspension was prepared. The cell suspension was dispensed into each well of a 96-well microplate at 100 μl/well using multichannel pipettes. Only a medium was added to a blank (background) well in an amount of 100 μl. HeLaS3 cells, A549 cells, H1299 cells, HT29 cells, and […] cultured for 24 hours in a CO2-incubator, Jurkat cells, HL60 cells, and THP-1 cells were cultured for 1 to 2 hours in a CO2-incubator. Solutions of the compounds diluted 3-fold from 10 mM to 100 μM in methanol or dimethyl sulfoxide were prepared, and the resulting solutions were then added at 1 μl/well (final concentration: 100 μM to 1 μM). After culture was performed for 2 days, 10 μl of the WST-8 reagent was introduced into each well, culture was performed for 30 to 60 minutes, and the absorbance at 460 nm was measured. The cell viability was determined in accordance with the following equation. Cell viability (%)=[(As-Ab)/(Ac-Ab)]×100 • As: Absorbance of sample (a well containing cells, pochoniolide A, B, or C, and a WST-8 solution) • Ac: Absorbance of control (a well containing cells and a WST-8 solution without pochoniolide A, B, or C) • Ab: Absorbance of blank (a well containing a medium and a WST-8 solution without cells)
# [2] = test system: Bacillus subtilis ATCC 6633, Micrococcus luteus ATCC 9341, Escherichia coli NIHJKB213, Xanthomonas campestris pv. oryzae KB 88, Candida albicans KF1, Mucor …; type: cell-based
# [3] = Solubility (physicochemical properties); settings: DMSO, acetone, water, methanol
# [4] = Acrylamide produced by Maillard reaction using a mixture of asparagine and glucose (Morinaga acrylamide EIA kit); settings: compound at 6 mg/ml final concentration; heated in autoclave 121° C. 20 minutes; untreated sample 51 ng/ml
# Protocol: An aqueous solution (0.25 ml) of 100 mg/ml glucose (Wako Pure Chemical Corporation) treated with Chelex 100 (Bio-Rad Laboratories, Inc.) and an aqueous solution (0.5 ml) of 50 mg/ml asparagine (Wako Pure Chemical Corporation) treated with Chelex 100 (Bio-Rad Laboratories, Inc.) were introduced into a 1.5-ml microtube. Pochoniolides A, B, and C dissolved in methanol to a fmal concentration of 6 mg/ml and dihydroquercetin (final concentration 10% methanol) as a positive control were added, and the total amount of the solution was adjusted to 1.0 ml with the addition of distilled water. After the resultant was heated in an autoclave at 121° C. for 20 minutes, the amount of acrylamide produced was measured with the use of Morinaga acrylamide EIA kit (Morinaga Institute of Biological Science, Inc.) in accordance with the protocols.
# [5] = Effects for decreasing acrylamide in model food (french fries); settings: test compound at final concentration of 1% applied to formed potatoes, fried in oil at 170 to 200 degrees for 1 minute; for concentration of acrylamide produced: control 7 ppm
# Protocol: Pochoniolides B and C were evaluated in terms of effects of decreasing acrylamide in a model food (french fries) using dihydroquercetin as a positive control. Commercially available frozen french fries (raw) were thawed and a portion of 10 g was separated. The portion of 10 g was ground in a mortar and formed into individual homogeneous portions of 1 g each, followed by forming. The test compounds were dissolved in a small amount of ethanol to a final concentration of 1%. The ethanol solution was homogeneously applied to the formed potatoes. The potatoes were fried in oil at 170 to 200 degrees for 1 minute, and measurement of the acrylamide concentration was requested to Morinaga Institute of Biological Science, Inc. The results are shown in FIG. 7. While the concentration of acrylamide produced was 7 ppm with the addition of control sample, the concentration of acrylamide produced was 4 ppm with the addition of dihydroquercetin as a positive control. No effects of pochoniolide B for decreasing the amount of acrylamide production were observed. The concentration of acrylamide produced was 2 ppm in the group to which pochoniolide C was added.
Compound,cytotoxicity (cell viability) [1],antibacterial activity (growth-inhibiting circle) [2],Solubility [3],amount of acrylamide produced [4] [ng/mL],effects for decreasing the amount of acrylamide production [5],concentration of acrylamide produced [5] [ppm]
pochoniolide B,no toxicity,no antibacterial activity,"easily soluble in DMSO and acetone, but hardly soluble in water and methanol",9,No effects,
O=C(O)CC1OC(=O)C=C1C1Oc2cc(O)cc(O)c2C(=O)C1O (stereo not shown) [pochoniolide C],no toxicity,no antibacterial activity,"easily soluble in DMSO and acetone, but hardly soluble in water and methanol",18,,2
"O=C1c2c(O)cc(O)cc2O[C@H](c2ccc(O)c(O)c2)[C@H]1O [dihydroquercetin, reference compound]",,,,28,,4
O=C(O)CC1OC(=O)C=C1c1coc2cc(O)cc(O)c2c1=O (stereo not shown) [pochoniolide A],no toxicity,no antibacterial activity,"easily soluble in DMSO and acetone, but hardly soluble in water and methanol",53,,
